Columns and labels:
[1] = target: T1, HIV reverse transcriptase (Human immunodeficiency virus type 1 group M subtype B, UniProt P03366); assay: Gel-based single-nucleotide-incorporation and control assays with HIV RT (Example 4); assay type: biochemical, HIV-1
T1 construct: performed for the enzyme HIV reverse transcriptase (GE Healthcare, 30 U/4 stock solution); purchased GE Healthcare
Procedure: End-labeled primers were annealed to their template by combining primer and templates in a molar ratio of 1:2 and heating the mixture to 70° C. for 10 minutes, followed by slow cooling to room temperature over a period of 2.5 hours. For the incorporation of L-Asp-dGMP (9), L-Asp-dTMP (10), L-Asp-dCMP (11), and N-Me-Asp-dAMP (12) (see FIG. 13), the primer P1 was annealed to templates T1, T2, T4 or A and P2 was annealed to T4. A series of 20 μL reactions was performed for the enzyme HIV reverse transcriptase (GE Healthcare, 30 U/4 stock solution). The final mixture contained 125 nM primer-template complex, RT buffer (250 mM TrisHCl, 250 mM KCl, 50 mM MgCl2, 2.5 mM spermidine, 50 mM DTT, pH 8.3), 0.03 U/μL HIV RT and different amino acid phosphoramidates building blocks concentrations. In the control reaction with the natural nucleotide, 10 μM or 50 μM dGTP, dTTP, dATP or dCTP were used. The mixture was incubated at 37° C. […] and aliquots were quenched after 5, 10, 20, 30, 60 and 120 minutes respectively.
All polymerase reactions (3 μL) were quenched by the addition of 10 μL of loading buffer (90% formamide, 0.05% bromophenol blue, 0.05% xylene cyanol and 50 mM EDTA). Samples were heated at 70° C. for 5 minutes prior to analysis by electrophoresis for 2-3 hours at 2000 V on a 0.4 mm 20% denaturing gel in the presence of a 100 mM Tris-borate, 2.5 mM EDTA buffer, pH 8.3. Products were visualized by phosphor imaging. The amount of radioactivity in the bands corresponding to the products of enzymatic reactions was determined by using the Optiquant image analysis software (Perkin Elmer).

[2] = target: Taq DNA polymerase (Thermus aquaticus, UniProt P19821); assay: Single nucleotide incorporation by Taq DNA polymerase; assay type: biochemical
Procedure: (§1) Reaction conditions: Primer (P1) was 5′-labeled with ^33P followed by annealing to a template T1; 125 nM primer/template (P1/T1), [Taq]=0.005 U/μL, [Vent]=0.005 U/μL, [KF]=0.05 U/μL; time intervals: 5, 15, 30, 60, 90 and 120 minutes.
(§2) In the case of Therminator DNA polymerase, the enzyme was obtained from Westburg (NEB) (2 U/μL) and the reactions were carried out in a 10× Thermopol reaction buffer containing 20 mM TRIS.HCl, 10 mM KCl, 2 mM MgSO4, 0.1% Triton X-100, pH 8.8. The final concentration of the Therminator DNA pol in the reaction mixture was 8.33×10^−4 U/μL. The polymerase reaction involving Therminator DNA polymerase or any other thermostable polymerase (Vent (exo^−), Taq DNA polymerase) was carried out in a similar way as the HIV RT reaction with some modifications. The dNTP solutions and the primer/template/DNA polymerase mixture solutions were topped with mineral oil (30-60 μL) and pre-incubated at 70° C. for 2 minutes. The polymerase reactions were performed at 70° C. as well.

[3] = target: T2, Therminator DNA polymerase (Thermococcus sp., UniProt Q56366, A485L/D141A/E143A); assay: Primer extension by Therminator DNA polymerase (P1/T3, P1/T5); assay type: biochemical, (9° N-7) Thermococcus sp.
T2 construct: purchased Westburg (NEB)
Procedure: (§3) Primer extension study with HIV RT and Therminator DNA polymerase was performed in a fashion similar to the single nucleotide incorporation experiments. Two sets of primer/template complexes were used: P1/T3 and P1/T5.
as §2

[4] = target: T3, HIV reverse transcriptase (HIV RT) (Human immunodeficiency virus type 1 group M subtype B, UniProt P03366); assay: Single nucleotide incorporation by HIV RT, gel-based, P1/T1 (Examples 2-3); assay type: biochemical, HIV-1
T3 construct: HIV RT polymerase was purchased from GE Healthcare; purchased GE Healthcare (Amersham Bioscience)
Procedure: (§4) A typical single nucleotide incorporation and primer extension assays using HIV RT polymerase was carried out similar to one described in the literature. HIV RT polymerase was purchased from GE Healthcare and was supplied as either 12 or 30 U/μL stock solution. The final concentration of HIV RT in a reaction mixture was 0.03-0.003 U/μL. A primer/template duplex mixture was prepared by combining appropriate amounts of a 5′-^33P-labeled primer (P1) and a template in 1:2 molar ratio to provide a 4× solution with 0.5 μM primer concentration. The polymerase reactions were carried out in a 5×RT buffer containing 250 mM TRIS.HCL, 250 mM KCl, 50 mM MgCl2, 2.5 mM spermidine, 50 mM DTT, pH 8.3. For the single nucleotide incorporation assay, a P1/T1 primer-template pair was used whereas the primer extension study was performed with P1/T3 and P1/T5 primer-template pairs.
Briefly, a mixture containing 5 μL of the 4× primer/DNA duplex solution and 5 μL of 4× polymerase solution was pre-incubated at 37° C. for 2 minutes to ensure formation a DNA polymerase/DNA duplex complex. Simultaneously, 2× solutions of dNTP to provide final concentrations of 100 μM, 200 μM, 500 μM and 1 mM were also pre-incubated at 37° C. for 2 minutes as well. The polymerase reaction in a total volume of 20 μL was initiated by addition of 10 μL of the 2× dNTP solution to the DNA polymerase/DNA duplex mixture. The reactions were run at 37° C. and aliquots (2.5 μL) were removed at specified time points and mixed with 10 μL of a quenching buffer containing 80% formamide, 2 mM EDTA, 1×TBE. Quenched reactions were analyzed by loading 2 μL of a reaction sample onto a 20% denaturing polyacrylamide:gel (19:1 acrylamide:bisacrylamide, 7M urea, 0.4 mm×30 cm×40 cm) made in 1×TBE buffer (90 mM Tris-borate, 2 mM EDTA, pH 8.3). The gel was pre-equilibrated for 2 hours before loading and the reactions were run along with a tracking dye marker containing bromophenol blue (BB) and xylene cyanol (XC) until the BB dye had run ⅔ of the total gel length. For visualization, gels were scanned using a Cyclone Phosphoroimager.

[5] = target: T4, KF (exo−) DNA polymerase (Escherichia coli, UniProt P00582, D355A/E357A); assay: Single nucleotide incorporation by KF (exo−) DNA polymerase; assay type: biochemical; settings: 60 minutes
T4 construct: Klenow Fragment (KF) (exo^−) DNA polymerase
Procedure: as §1

[6] = target: T5, HIV RT (Human immunodeficiency virus type 1 group M subtype B, UniProt P03366); assay: Primer extension by HIV RT (P1/T3, P1/T5); assay type: biochemical, HIV-1; settings: T3 template
T5 construct: HIV RT polymerase was purchased from GE Healthcare; purchased GE Healthcare (Amersham Bioscience)
Procedure: as §4, §3

T2 sequence (Q56366 whole entry D141A/E143A/A485L): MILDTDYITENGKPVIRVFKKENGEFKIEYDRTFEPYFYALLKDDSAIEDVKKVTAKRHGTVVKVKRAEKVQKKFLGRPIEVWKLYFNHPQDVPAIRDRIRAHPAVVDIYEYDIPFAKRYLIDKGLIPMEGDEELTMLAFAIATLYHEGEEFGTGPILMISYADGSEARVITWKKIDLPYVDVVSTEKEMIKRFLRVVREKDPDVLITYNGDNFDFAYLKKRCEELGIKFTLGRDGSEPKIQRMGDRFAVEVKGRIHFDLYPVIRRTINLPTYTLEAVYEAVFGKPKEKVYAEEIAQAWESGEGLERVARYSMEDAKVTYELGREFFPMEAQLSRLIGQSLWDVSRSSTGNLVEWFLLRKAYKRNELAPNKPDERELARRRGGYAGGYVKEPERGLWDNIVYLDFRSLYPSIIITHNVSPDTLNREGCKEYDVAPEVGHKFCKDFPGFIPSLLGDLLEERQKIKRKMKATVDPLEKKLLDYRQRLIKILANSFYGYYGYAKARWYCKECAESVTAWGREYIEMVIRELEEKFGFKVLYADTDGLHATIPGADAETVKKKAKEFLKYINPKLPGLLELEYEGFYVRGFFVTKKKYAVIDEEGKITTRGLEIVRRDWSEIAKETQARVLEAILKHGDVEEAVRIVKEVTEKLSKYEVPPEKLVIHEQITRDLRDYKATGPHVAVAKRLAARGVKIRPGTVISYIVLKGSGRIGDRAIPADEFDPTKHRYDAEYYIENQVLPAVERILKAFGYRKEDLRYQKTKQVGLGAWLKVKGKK
T4 sequence (P00582 324-928 D355A/E357A): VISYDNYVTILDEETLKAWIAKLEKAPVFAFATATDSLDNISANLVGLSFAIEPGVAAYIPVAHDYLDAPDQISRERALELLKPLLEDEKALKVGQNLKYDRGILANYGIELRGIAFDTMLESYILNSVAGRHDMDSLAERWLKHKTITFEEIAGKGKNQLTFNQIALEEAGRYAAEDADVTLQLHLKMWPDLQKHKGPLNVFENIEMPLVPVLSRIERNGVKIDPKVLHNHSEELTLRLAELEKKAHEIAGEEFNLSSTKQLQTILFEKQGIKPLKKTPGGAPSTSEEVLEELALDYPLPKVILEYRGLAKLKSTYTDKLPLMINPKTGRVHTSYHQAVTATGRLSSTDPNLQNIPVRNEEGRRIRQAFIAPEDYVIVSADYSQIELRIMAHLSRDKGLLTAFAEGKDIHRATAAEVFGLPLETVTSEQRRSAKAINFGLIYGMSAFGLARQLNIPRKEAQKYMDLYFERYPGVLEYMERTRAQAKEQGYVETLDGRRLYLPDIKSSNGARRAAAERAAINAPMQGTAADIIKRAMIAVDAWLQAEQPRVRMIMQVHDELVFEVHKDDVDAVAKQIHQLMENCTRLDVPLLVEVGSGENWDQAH
Sequence of Taq DNA polymerase (P19821 whole entry): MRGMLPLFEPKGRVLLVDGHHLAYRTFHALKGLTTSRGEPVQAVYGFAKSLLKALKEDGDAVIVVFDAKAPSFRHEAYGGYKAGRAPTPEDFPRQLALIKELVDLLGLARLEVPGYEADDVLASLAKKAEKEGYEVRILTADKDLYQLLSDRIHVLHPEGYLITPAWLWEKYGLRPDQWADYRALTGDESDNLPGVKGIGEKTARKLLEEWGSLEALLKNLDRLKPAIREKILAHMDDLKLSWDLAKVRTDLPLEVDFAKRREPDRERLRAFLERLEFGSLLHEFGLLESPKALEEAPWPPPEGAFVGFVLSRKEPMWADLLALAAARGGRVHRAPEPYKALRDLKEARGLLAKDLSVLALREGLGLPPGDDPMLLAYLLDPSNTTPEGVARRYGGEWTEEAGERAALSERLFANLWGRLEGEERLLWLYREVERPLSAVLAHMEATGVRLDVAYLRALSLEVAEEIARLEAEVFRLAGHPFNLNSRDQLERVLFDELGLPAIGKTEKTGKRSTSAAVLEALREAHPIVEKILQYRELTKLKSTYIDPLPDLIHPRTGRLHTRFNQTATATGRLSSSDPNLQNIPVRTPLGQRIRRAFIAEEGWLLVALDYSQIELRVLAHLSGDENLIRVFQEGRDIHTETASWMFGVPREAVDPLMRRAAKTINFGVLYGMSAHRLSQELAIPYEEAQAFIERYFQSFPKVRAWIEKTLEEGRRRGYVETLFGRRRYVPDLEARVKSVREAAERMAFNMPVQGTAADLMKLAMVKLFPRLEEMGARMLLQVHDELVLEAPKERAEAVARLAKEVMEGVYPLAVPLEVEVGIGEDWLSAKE

2′-deoxy-adenosine-5′-aspartyl-phosphoramidate [Compound 1]
base-pairing selectivity of incorporation ([1]; P1/T1): inserted selectively against thymine
incorporation with blunt ended duplex ([1]; primer P1, template A): none of these compounds incorporated at all
insertion into a growing primer strand [2]: failed to insert
primer extension ([3]; T3 template): successfully incorporated
number of adenine residues incorporated ([3]; T5 template, overhang of seven thymidine residues): up to five adenine residues
conversion to a n+1 strand ([4]; 500 μM nucleotide concentration, 60 min, P1/T1): 90%
incorporation ([4]; substrate concentration decreased 10 fold (from 500 μM)): 24.1%
conversion of the primer strand [5]: 32.5%
primer extension product [6]: extend a primer with three adenine nucleobases (n+3 product)
(n+3) product ([6]; 60 minutes, 500 μM substrate): 5.2%
n+2 product ([6]; 60 minutes, 500 μM substrate): 56.3%
